According to patent US20100137313A1 (ASTRAZENECA AB, priority 2008, published 2010):

The compounds below were run against S. pneumoniae Topoisomerase IV ATPase (ParE) (Streptococcus pneumoniae serotype 4, UniProt Q59961) (assay: S. pneumoniae Topoisomerase IV ATPase inhibition). Conditions: values marked * are an average of two or more data points, read-out: % Inh (13 μM) of S. pneumoniae Topoisomerase IV ATPase.
Sequence of S. pneumoniae Topoisomerase IV ATPase (ParE) (Q59961 whole entry): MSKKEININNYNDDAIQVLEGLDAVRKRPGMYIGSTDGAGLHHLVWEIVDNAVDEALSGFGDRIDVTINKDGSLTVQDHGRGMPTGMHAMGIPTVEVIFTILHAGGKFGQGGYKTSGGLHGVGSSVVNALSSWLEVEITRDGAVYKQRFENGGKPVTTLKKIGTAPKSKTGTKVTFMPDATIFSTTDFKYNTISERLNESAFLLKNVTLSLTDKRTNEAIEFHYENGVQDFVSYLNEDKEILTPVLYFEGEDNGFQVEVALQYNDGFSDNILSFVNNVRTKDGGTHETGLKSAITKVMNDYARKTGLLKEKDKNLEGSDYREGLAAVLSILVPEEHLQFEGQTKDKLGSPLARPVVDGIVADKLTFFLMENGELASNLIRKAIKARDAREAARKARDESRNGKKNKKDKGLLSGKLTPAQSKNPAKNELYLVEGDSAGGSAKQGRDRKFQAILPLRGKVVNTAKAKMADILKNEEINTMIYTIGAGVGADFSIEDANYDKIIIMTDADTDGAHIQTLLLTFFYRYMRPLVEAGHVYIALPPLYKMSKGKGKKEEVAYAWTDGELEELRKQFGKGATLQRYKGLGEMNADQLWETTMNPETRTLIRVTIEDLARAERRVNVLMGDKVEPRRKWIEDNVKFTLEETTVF
Type: biochemical
Summary of the method: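 S. pneumoniae ParE (1.25 nM) ATPase with 160 μM ATP and 5 μg/ml sheared DNA in pH 8.0 Tris, Mg2+, DTT, Brij-35; phosphate detected by malachite green/molybdate at 650 nm. Normalised to 2% DMSO (0%) and 20 μM EDTA (100%); IC50 from 10 concentrations.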
O=C(O)/C=C/c1cccc(-c2cnc(Nc3ccc(F)c(Cl)c3)nc2-n2cccc2)c1 [Example 315, (2E)-3-(3-{2-[(3-chloro-4-fluorophenyl)amino]-4-(1H-pyrrol-1-yl)pyrimidin-5-yl}phenyl)prop-2-enoic acid] showed an inhibition at 13 µM of 62.8%.
Work on Cc1cc(C)n(-c2nc(Nc3ccc(F)c(Cl)c3)ncc2-c2cncc(C(=O)O)c2)n1 [Example 316, 5-{2-[(3-chloro-4-fluorophenyl)amino]-4-(3,5-dimethyl-1H-pyrazol-1-yl)pyrimidin-5-yl}pyridine-3-carboxylic acid] yielded an inhibition at 13 µM of 80%.
O=C(O)c1cncc(-c2cnc(Nc3ccc(F)c(Cl)c3)nc2-n2nccn2)c1 [Example 317, 5-{4-(2H-1,2,3-triazol-2-yl)-2-[(3-chloro-4-fluorophenyl)amino]pyrimidin-5-yl}pyridine-3-carboxylic acid] gave an inhibition at 13 µM of 84.9%.
O=C(O)c1cncc(-c2cnc(Nc3ccc(F)c(Cl)c3)nc2-n2nnc3ccccc32)c1 [Example 318, 5-{4-(1H-benzotriazol-1-yl)-2-[(3-chloro-4-fluorophenyl)amino]pyrimidin-5-yl}pyridine-3-carboxylic acid] showed an inhibition at 13 µM of 92.3%.
Cc1cc(C(F)(F)F)nn1-c1nc(Nc2ccc(F)c(Cl)c2)ncc1-c1cncc(C(=O)O)c1 [Example 319, 5-{2-[(3-chloro-4-fluorophenyl)amino]-4-[5-methyl-3-(trifluoromethyl)-1H-pyrazol-1-yl]pyrimidin-5-yl}pyridine-3-carboxylic acid] showed an inhibition at 13 µM of 90.6%.
With O=C(O)c1cncc(-c2cnc(Nc3ccc(F)c(Cl)c3)nc2-n2ccc(C(F)(F)F)n2)c1 [Example 320, 5-{2-[(3-chloro-4-fluorophenyl)amino]-4-[3-(trifluoromethyl)-1H-pyrazol-1-yl]pyrimidin-5-yl}pyridine-3-carboxylic acid] the inhibition at 13 µM was 101%.
Compound Cc1cc(C)n(-c2nc(Nc3ccc(F)c(Cl)c3)ncc2-c2cccc(/C=C/C(=O)O)c2)n1 [Example 321, (2E)-3-(3-{2-[(3-chloro-4-fluorophenyl)amino]-4-(3,5-dimethyl-1H-pyrazol-1-yl)pyrimidin-5-yl}phenyl)prop-2-enoic acid] has an inhibition at 13 µM of 83.7%.
Cc1cc(C(F)(F)F)nn1-c1nc(Nc2ccc(F)c(Cl)c2)ncc1-c1cccc(/C=C/C(=O)O)c1 [Example 322, (2E)-3-(3-{2-[(3-chloro-4-fluorophenyl)amino]-4-[5-methyl-3-(trifluoromethyl)-1H-pyrazol-1-yl]pyrimidin-5-yl}phenyl)prop-2-enoic acid] gave an inhibition at 13 µM of 75%.
For O=C(O)/C=C/c1cccc(-c2cnc(Nc3ccc(F)c(Cl)c3)nc2-n2ccc(C(F)(F)F)n2)c1 [Example 323, (2E)-3-(3-{2-[(3-chloro-4-fluorophenyl)amino]-4-[3-(trifluoromethyl)-1H-pyrazol-1-yl]pyrimidin-5-yl}phenyl)prop-2-enoic acid], the inhibition at 13 µM was 99.5%.
O=C(O)/C=C/c1cccc(-c2cnc(Nc3ccc(F)c(Cl)c3)nc2-n2nccn2)c1 [Example 324, (2E)-3-(3-{2-[(3-chloro-4-fluorophenyl)amino]-4-(2H-1,2,3-triazol-2-yl)pyrimidin-5-yl}phenyl)prop-2-enoic acid] was tested, and the inhibition at 13 µM was 76.9%.
Compound O=C(O)/C=C/c1cccc(-c2cnc(Nc3ccc(F)c(Cl)c3)nc2-n2nnc3ccccc32)c1 [Example 325, (2E)-3-(3-{4-(1H-benzotriazol-1-yl)-2-[(3-chloro-4-fluorophenyl)amino]pyrimidin-5-yl}phenyl) prop-2-enoic acid] has an inhibition at 13 µM of 102%.
O=C(O)c1cncc(-c2cnc(Nc3ccc(F)c(Cl)c3)nc2-n2cnc(Cl)c2Cl)c1 [Example 327, 5-{2-[(3-chloro-4-fluorophenyl)amino]-4-(4,5-dichloro-1H-imidazol-1-yl)pyrimidin-5-yl}pyridine-3-carboxylic acid] was tested, and the inhibition at 13 µM was 99%.
O=C(O)c1cncc(-c2cnc(Nc3ccc(F)c(Cl)c3)nc2-n2cnc(C(F)(F)F)c2)c1 [Example 328, 5-{2-[(3-chloro-4-fluorophenyl)amino]-4-[4-(trifluoromethyl)-1H-imidazol-1-yl]pyrimidin-5-yl}pyridine-3-carboxylic acid] was tested, and the inhibition at 13 µM was 70.8%.
